Measured values from PubChem BioAssay (NCI).
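Exposure lasted 48 hours, with cells grown in 96-well plates and compounds tested at five concentrations. The concentration for full growth arrest is given as TGI.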

Legend:
Test in all cases: NCI anticancer screen, dose series, 48 h
MALME-3M melanoma = tested on: MALME-3M melanoma
ACHN renal = tested on: ACHN renal
T-47D breast = tested on: T-47D breast
CAKI-1 renal = tested on: CAKI-1 renal
COLO 205 colon = tested on: COLO 205 colon
SF-295 CNS = tested on: SF-295 CNS
SK-MEL-5 melanoma = tested on: SK-MEL-5 melanoma
OVCAR-3 ovarian = tested on: OVCAR-3 ovarian
MOLT-4 leukemia = tested on: MOLT-4 leukemia
NCI-H226 lung = tested on: NCI-H226 lung
UACC-62 melanoma = tested on: UACC-62 melanoma
OVCAR-4 ovarian = tested on: OVCAR-4 ovarian
EKVX NSCLC = tested on: EKVX NSCLC
UACC-257 melanoma = tested on: UACC-257 melanoma
NCI-H23 lung = tested on: NCI-H23 lung
MDA-MB-231 breast = tested on: MDA-MB-231 breast
MDA-N = tested on: MDA-N
SN12C renal = tested on: SN12C renal
HCT-15 colon = tested on: HCT-15 colon

SMILES	TGI (MALME-3M melanoma) [µM]	TGI (ACHN renal) [µM]	TGI (T-47D breast) [µM]	TGI (CAKI-1 renal) [µM]	TGI (COLO 205 colon) [µM]	TGI (SF-295 CNS) [µM]	TGI (SK-MEL-5 melanoma) [µM]	TGI (OVCAR-3 ovarian) [µM]	TGI (MOLT-4 leukemia) [µM]	TGI (NCI-H226 lung) [µM]	TGI (UACC-62 melanoma) [µM]	TGI (OVCAR-4 ovarian) [µM]	TGI (EKVX NSCLC) [µM]	TGI (UACC-257 melanoma) [µM]	TGI (NCI-H23 lung) [µM]	TGI (MDA-MB-231 breast) [µM]	TGI (MDA-N) [µM]	TGI (SN12C renal) [µM]	TGI (HCT-15 colon) [µM]
Oc1cccc(-c2nc3cc(F)ccc3s2)c1	48.6	71.3	14.2	35.2	30	50.7	25	43.4	59	44	35.1	52.3	32.5	34.3	70.7	51.6	61.8	82.7	56.4
Nc1ccc(S2(c3ccc(N)cc3)C=C(c3ccccc3)C(c3ccccc3)=C2)cc1	> 100	> 92.5	> 100	> 22.6	> 100	> 100	> 100	> 100	> 100	> 63.3	> 100	> 25.2	> 100	> 100	> 100	> 100	> 100	> 100	> 100
C#C[C@]1(O)CC[C@H]2[C@@H]3CCC4=C/C(=N/OC(=O)c5cccc6c(=O)c7ccccc7[nH]c56)CC[C@@H]4[C@H]3CC[C@@]21C	> 100	> 100	91.1	> 100	77.1	> 100	45.8	> 100	38.1	> 100	> 100	> 100	> 100	> 100	> 100	> 100	> 100	> 100	> 100
COc1ccc2c(cnc3c4cc(OC)c(OC)cc4ccc23)c1	> 100	> 100	> 100	> 100	> 100	> 100	> 100	> 100	> 100	> 100	> 100	> 100	> 100	> 100	> 100	> 100	> 100	> 100	> 100
CC1=C(CO)C(=O)O[C@@H]([C@@H](CO)[C@H]2CCC3C4C[C@@H](O)[C@@]5(O)CC=CC(=O)[C@]5(C)C4CC[C@@]32C)C1 (stereo not given in full)	> 100	> 100	> 100	> 100	> 100	> 100	> 100	83.9	> 100	> 100	> 100	> 100	> 100	> 100	> 100	> 100	> 100	> 100	> 100
O=c1oc2ccc([N+](=O)[O-])cc2c(Nc2ccc3c(c2)Oc2ccccc2O3)c1[N+](=O)[O-]	> 100	> 100	> 100	> 100	40.2	> 100	76	> 100	–	87.1	> 100	> 100	> 100	76.6	62.3	37	> 100	> 100	> 100
CCOC(=O)NC(Nc1ccc([N+](=O)[O-])cc1)(C(F)(F)F)C(F)(F)F	> 100	> 100	> 100	> 100	> 100	> 100	> 100	> 100	> 100	> 100	> 100	–	> 100	> 100	> 100	> 100	54.7	> 100	> 100
O=C1C(=Cc2ccccc2O)N=C(c2ccccc2)N1n1c(-c2ccccc2)nc2ccccc2c1=O	> 100	89.3	93	84.8	> 100	56.8	41.7	–	77.7	79	> 100	–	> 100	69.1	89.5	> 100	> 100	> 100	> 100
Cn1c2ccccc2c(=O)c2cccc(C(=O)NC(CCCN=C(N)N)C(=O)O)c21 (stereo not given)	> 100	> 100	> 100	–	> 100	> 100	> 100	> 100	> 100	> 100	> 100	> 100	> 100	> 100	> 100	> 100	> 100	> 100	> 100
CCOC(=O)NC(Nc1cccc(C(F)(F)F)c1)(C(F)(F)F)C(F)(F)F	> 100	> 100	> 100	> 100	> 100	> 100	> 100	> 100	> 100	> 100	> 100	–	> 100	> 100	> 100	> 100	> 100	> 100	> 100
Cc1cc(NCc2ccccc2)c2ccccc2[n+]1CCCCCCCCCC[n+]1c(C)cc(NCc2ccccc2)c2ccccc21	> 100	2.92	1.41	5.48	0.665	2.49	0.638	–	–	–	0.567	> 100	13.4	1.31	1.86	1.74	1.4	1.08	5.88
S=C(Nc1ccc2c(c1)oc1ccccc12)c1cccnc1	> 100	> 100	> 100	–	> 100	> 100	> 100	67.3	> 100	96.1	> 100	> 100	> 100	–	> 100	> 100	> 100	> 100	> 100
Cc1cc(S(=O)(=O)Nc2nc3cc(-c4ccc(Cl)cc4)sc3c(=O)n2N)c(S)cc1Cl	> 100	98.7	> 100	> 100	56.1	> 100	> 100	> 100	55.3	–	> 100	> 100	> 100	> 100	> 100	> 100	> 100	> 100	> 100
COc1ccc(/C=C2\N=C(SC)NC2=O)cc1	> 100	–	> 100	> 100	> 100	> 100	> 100	> 100	> 100	> 100	> 100	> 100	> 100	–	> 100	> 100	> 100	> 100	> 100
Cn1c(COC(=O)Nc2ccccc2)c(COC(=O)Nc2ccccc2)c2ccc3cc(Cl)c(Cl)cc3c21	6.59	29	5.41	3.09	14.5	64.2	16.1	21.6	> 75	54.7	40.7	–	44.5	21.6	> 75	12.7	18.3	16.4	15
CC(=O)NC1c2ccccc2C(C)(C)C12CCC1(CC2)OCCO1 (stereo not given)	> 100	> 100	> 100	> 100	> 100	> 100	> 100	–	> 100	> 100	> 100	> 100	> 100	> 100	> 100	> 100	> 100	> 10	> 100
CC1=NNC(=O)C1C(CC(=O)c1c[nH]c2ccccc12)C(=O)O (stereo not given)	> 100	> 100	> 100	> 100	> 100	> 100	> 100	> 100	> 100	> 100	> 100	–	> 100	> 100	> 100	> 100	> 100	> 100	> 100
CCC/C(Cl)=N\OC(=O)Nc1ccc(OC(F)(F)F)cc1	4.22	4.41	7.65	3.05	3.54	31.7	21.7	25.2	4.59	34.5	48.7	39.8	40.1	39.8	53.8	25.8	28.2	21.1	–
CN1[C@@H]2C[C@@H](OC(=O)[C@H](CO)c3ccccc3)C[C@H]1[C@@H]1O[C@@H]12	> 100	> 100	> 100	> 100	> 100	–	> 100	> 100	> 100	> 100	> 100	> 100	> 100	> 100	> 100	> 100	> 100	> 100	> 100
CN(C)c1ccc(C2SCC(=O)N2c2ccc(Oc3ccc(Cl)cc3)c(Cl)c2)cc1 (stereo not given)	38.4	> 100	61	> 100	36.2	–	36.8	79.9	> 100	> 100	42.7	69	60.5	> 100	45.4	43.3	58.5	50	55.8
O=C(O)/C=c1/c2ccccc2n2nc3ccccc3c12	96.2	66.1	> 100	> 100	33.5	> 100	30.4	> 100	69.6	–	43.5	70.1	> 100	70	> 100	> 100	> 100	88.8	> 100
CC(C)(C)C(=O)CC1=Nc2ccccc2SC1(O)CC(=O)C(C)(C)C (stereo not given)	> 100	70.2	67.8	56.8	29.8	68.6	62.7	75.3	24.3	40.3	31.3	–	59.6	> 100	98.7	36.2	> 100	73.2	52.8
O=C1c2ccccc2C2(c3ccc(Cl)cc3)N[C@H]3CCCC[C@@H]3N12 (stereo not given in full)	–	> 100	> 100	> 100	> 100	> 100	> 100	> 100	> 100	> 100	> 100	> 100	> 100	> 100	> 100	> 100	> 100	> 100	> 100
COc1cccc(/C=N/n2c(C)n[nH]c2=O)c1	> 100	> 100	> 100	> 100	> 100	> 100	–	> 100	> 100	> 100	> 100	> 100	> 100	> 100	> 100	> 100	> 100	> 100	> 100
C=C1C(=O)C=C[C@]2(C)CC[C@H]3C(=C)C(=O)O[C@@H]3[C@@H]12	5.18	9.59	20.7	8.53	2.24	30.6	5.93	11.1	3.52	–	4.29	5.78	8.7	10.5	9.61	11.7	16.6	7.49	13.8
